Publication PMC7395068, “The evolution of strategies to minimise the risk of human drug-induced liver injury (DILI) in drug discovery and development” (Archives of Toxicology, 2020)
Read-outs that look alike come from different tables or passages of the source.

Key:
[1] = Plasma free fraction (fu) and unbound Cmax (Cmax,u); type: in vitro ADME, human; conditions: unbound plasma Cmax
Experimental: The prediction of DILI severity was evaluated further using the 3D combined HCI assays using plasma-free fraction. The majority of fu values were obtained from literature, when unavailable in-house prediction was utilised. Unbound plasma Cmax concentrations (Cmax,u) were derived by multiplying total plasma Cmax with the corresponding free fraction (fu) for each compound.

HepG2 = tested on: HepG2; design: method as in Albrecht 2019; conditions: In vitro Assay; ref Albrecht 2019; cited from earlier work
[2] = cited from earlier work
[3] = tested on: primary human hepatocytes, NIH3T3 fibroblasts, BSEP, CYP3A4; conditions: cited from earlier work
HepG2 cells = conditions: cited from earlier work
[4] = tested on: THLE or HepG2 cells, isolated mitochondria, BSEP; conditions: cited from earlier work
PHH [5] = conditions: cited from earlier work
hLiMTs [6] = conditions: cited from earlier work
[7] = tested on: HepG2 C3A spheroid, BSEP, Glu/Gal in HepG2 cells, bioactivation; conditions: cited from earlier work
[8] = read-out: Human plasma Cmax; total plasma Cmax.tot, median of 9 literature references; cited from earlier work
[9] = plasma free fraction; cited from earlier work
[10] = cited from earlier work; remark: listed apart in the source
PHH [11] = conditions: In vitro Assay; ref Albrecht 2019; cited from earlier work
[12] = tested on: THLE-Null and THLE-3A4 cells; conditions: In vitro Assay; ref Gustafsson 2014; cited from earlier work
[13] = tested on: HepG2 cells, primary human hepatocytes; conditions: In vitro Assay; ref Garside 2014; cited from earlier work
[14] = tested on: isolated mouse liver mitochondria; conditions: cited from earlier work
[15] = ref Chen 2011; cited from earlier work
rBsep = conditions: In vitro Assay; ref Dawson 2012; cited from earlier work
hLiMTs [16] = assay: Combined HCI (HCS) and cellular ATP 3D assay in hLiMTs; conditions: for AC50 / minimal effective concentration: Homo sapiens
HepaRG spheroids = assay: Combined HCI (HCS) and cellular ATP 3D assay in HepaRG spheroids; conditions: for AC50 / minimal effective concentration: Homo sapiens
hu-MPCC = conditions: cited from earlier work
RMPCC's = conditions: cited from earlier work
[17] = In vitro Assay, ref Schadt 2015
[18] = Modeled in vitro assays (cytotoxicity, mitochondrial dysfunction, BSEP), ref Aleo et al. 2019
[19] = In vitro Assay, ref Proctor 2017
[20] = In vitro Assay, ref Porceddu 2012
[21] = Microtissue model structural based (HCI), combined HCS and ATP, MEC < 25 × Cmax.tot cut-off

NC(=O)N1c2ccccc2C=Cc2ccccc21 [carbamazepine, reference compound]
Human plasma Cmax,u [1]: 12.190 µM
Cytotoxicity HepG2 48 hrs (HepG2): +VE
DILI severity category (Chen et al. [2016]) ([2]; LTKB DILIrank category, ref Chen et al. 2016): Most
DILI severity category (Chen 2016) ([2]; human DILI classification, LTKB DILIrank, ref Chen et al. 2016): Most
DILI severity category ([2]; human DILI severity, ref Chen et al.): Most
DILI +VE (5-8), DILI -VE (-4) ([2]; ref Chen 2016): +VE
DILI severity category ([2]; ref Chen 2016): vMost-DILI-Concern
DILI in vitro assay prediction, Schadt (2015) ([3]; BSEP & Metabolism based, ref Schadt et al. 2015): +VE
Cellular toxicity (3T3 cells) [3, 17]: -VE
Combined Assay [3, 17]: +VE
GSH adduct HML [3, 17]: +VE
Hepatocyte cellular toxicity [3, 17]: -VE
MitoTox 3T3 [3, 17]: -VE
TDI CYP3A4 [3, 17]: -VE
hBSEP inhibition [3, 17]: -VE
Structural based (HCI) (HepG2 cells; In vitro Assay, ref Tolosa 2012): +VE
DILI in vitro assay prediction, Tolosa (2012) (HepG2 cells; Structural based (HCI), HepG2, ref Tolosa et al. 2012): +VE
Partition Hybrid HRM Score ([4]; In vitro Assay, ref Aleo 2019): +VE
Ro2 Hybrid HRM Score ([4]; In vitro Assay, ref Aleo 2019): +VE
Partition Hybrid HRM Score ≥4, Aleo (2019) [4, 18]: +VE (Partition Hybrid HRM Score ≥4)
Partition Hybrid HRM Score ≥8, Aleo (2019) [4, 18]: -VE
Rule of Two hybrid HRM Score ≥3, Aleo (2019) [4, 18]: +VE (Rule of Two hybrid HRM Score ≥3)
Rule of Two hybrid HRM Score ≥8, Aleo (2019) [4, 18]: -VE
PHH/100xCmax, Proctor (2017) (PHH [5]; 2D PHH, ATP, IC50 < 100 × Cmax.tot, ref Proctor et al. 2017): -VE
PHH/100uM, Proctor (2017) (PHH [5]; 2D PHH, ATP, IC50 threshold 100 µM, ref Proctor et al. 2017): -VE
PHH ATP <100uM (PHH [5]; [19]): -VE
hLiMTs ATP <100uM (hLiMTs [6]; [19]): -VE
hLiMTs/100xCmax, Proctor (2017) (hLiMTs [6]; hLiMTs, ATP, IC50 < 100 × Cmax.tot, ref Proctor et al. 2017): +VE (IC50 < 100 × Cmax.tot)
hLiMTs/100uM, Proctor (2017) (hLiMTs [6]; hLiMTs, ATP, IC50 threshold 100 µM, ref Proctor et al. 2017): -VE
Bayesian Machine Learning DILI prediction, Williams (2019) ([7]; Bayesian modeling, ref Williams et al. 2019): +VE
Bayesian Machine Learning ([7]; In vitro Assay, ref Williams 2019): +VE
Cmax [8]: 50.8 µM
fu [9]: 0.240
Assigned DILI category ([10]; Chen et al. 2016 or literature alignment, ref Chen et al. 2016): 3
In vivo DILI ([10]; […]): +VE
In vivo DILI ([10]; ref Albrecht 2019): +VE
In vivo DILI ([10]; ref Aleo 2019): +VE
In vivo DILI ([10]; ref Dawson 2012): +VE
In vivo DILI ([10]; ref Garside 2014): +VE
In vivo DILI ([10]; ref Gustafsson 2014): +VE
In vivo DILI ([10]; ref Porceddu 2012): +VE
In vivo DILI ([10]; ref Proctor 2017): +VE
In vivo DILI ([10]; ref Schadt 2015): +VE
In vivo DILI ([10]; ref Tolosa 2012): +VE
In vivo DILI ([10]; ref Williams 2019): +VE
Cytotoxicity PHH 48 hrs (PHH [11]): +VE
THLE-Null [12]: -VE
THLE-Null/3A4 [12]: -VE
Cluster 1-6 +VE Assay [13]: -VE
in vitro data EC2<=1x Cmax [14, 20]: +VE
in vitro data EC20<=2uM [14, 20]: +VE
DILI Score (FDA) (1-8) [15]: 7
Inhibition of rBsep cutoff<1& cmax u>.2 (rBsep): -VE
Inhibition of rBsep cutoff<3 (rBsep): -VE
AC50 (hLiMTs [16]; read-out: ATP endpoint AC50): 145 µM
minimal effective concentration (hLiMTs [16]; read-out: ATP endpoint MEC): 73.6 µM
AC50 (hLiMTs [16]; read-out: HCS endpoint AC50): 226 µM
minimal effective concentration (hLiMTs [16]; read-out: HCS endpoint MEC): 109 µM
DILI prediction hLiMTs (HCS-MEC) (hLiMTs [16]; [21]): +VE (MEC < 25 × Cmax.tot cut-off)
hLiMTs <25x Avg Cmax ATP (hLiMTs [16]; hLiMTs, ATP endpoint, cut-off <25x Avg Cmax): +ve
hLiMTs <100x Avg Cmaxu ATP (hLiMTs [16]; hLiMTs, ATP endpoint, cut-off <100x Avg Cmaxu): +ve (<100x Avg Cmaxu)
hLiMTs <25x Avg Cmax HCS (hLiMTs [16]; hLiMTs, HCS endpoints, cut-off <25x Avg Cmax): +ve
hLiMTs <100x Avg Cmaxu HCS (hLiMTs [16]; hLiMTs, HCS endpoints, cut-off <100x Avg Cmaxu): +ve (<100x Avg Cmaxu)
hLiMTs <25x Avg Cmax All (hLiMTs [16]; hLiMTs, all endpoints (ATP and HCS), cut-off <25x Avg Cmax): +ve
hLiMTs Cmax max All (hLiMTs [16]; hLiMTs, all endpoints, Cmax max used): +ve
hLiMTs Cmax min All (hLiMTs [16]; hLiMTs, all endpoints, Cmax min used): +ve
hLiMTs <10 uM All (hLiMTs [16]; hLiMTs, all endpoints, cut-off <10 uM): -ve
hLiMTs <100x Avg Cmaxu All (hLiMTs [16]; hLiMTs, all endpoints, cut-off <100x Avg Cmaxu): +ve (<100x Avg Cmaxu)
HepaRG <25x Avg Cmax ATP (HepaRG spheroids; HepaRG, ATP endpoint, cut-off <25x Avg Cmax): +ve
HepaRG <100x Avg Cmaxu ATP (HepaRG spheroids; HepaRG, ATP endpoint, cut-off <100x Avg Cmaxu): +ve (<100x Avg Cmaxu)
HepaRG <25x Avg Cmax HCS (HepaRG spheroids; HepaRG, HCS endpoints, cut-off <25x Avg Cmax): +ve
HepaRG <100x Avg Cmaxu HCS (HepaRG spheroids; HepaRG, HCS endpoints, cut-off <100x Avg Cmaxu): +ve (<100x Avg Cmaxu)
HepaRG <25x Avg Cmax All (HepaRG spheroids; HepaRG, all endpoints (ATP and HCS), cut-off <25x Avg Cmax): +ve
HepaRG Cmax max All (HepaRG spheroids; HepaRG, all endpoints, Cmax max used): +ve
HepaRG Cmax min All (HepaRG spheroids; HepaRG, all endpoints, Cmax min used): +ve
HepaRG <10 uM All (HepaRG spheroids; HepaRG, all endpoints, cut-off <10 uM): -ve
HepaRG <100x Avg Cmaxu All (HepaRG spheroids; HepaRG, all endpoints, cut-off <100x Avg Cmaxu): +ve (<100x Avg Cmaxu)
AC50 (HepaRG spheroids; HepaRG, read-out: ATP endpoint AC50): 159 µM
minimal effective concentration (HepaRG spheroids; HepaRG, read-out: ATP endpoint MEC): 81.5 µM
AC50 (HepaRG spheroids; HepaRG, read-out: HCS endpoint AC50): 343 µM
minimal effective concentration (HepaRG spheroids; HepaRG, read-out: HCS endpoint MEC): 172 µM
DILI prediction HepaRG spheroids (HCS-MEC) (HepaRG spheroids; [21]): +VE (MEC < 25 × Cmax.tot cut-off)

O=C(O)c1cn(C2CC2)c2cc(N3CCNCC3)c(F)cc2c1=O [ciprofloxacin]
HMPCC's (hu-MPCC): +VE
in vitro data EC20<=2uM [14]: -VE
RMPCC's (RMPCC's): +VE
